Experimental data published in PubChem BioAssay (NCI).
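48-hour exposure; five concentrations; linearly interpolated endpoints. Definition used: TGI = concentration required for complete inhibition of growth.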

Experiments:
Test in all cases: NCI tumour cell line growth inhibition, 48 h
[1] = system: UO-31 renal
[2] = system: A498 renal
[3] = system: SK-MEL-5 melanoma
[4] = system: SNB-75 CNS
[5] = system: NCI-H226 lung
[6] = system: HT29 colon
[7] = system: COLO 205 colon
[8] = system: SNB-19 CNS
[9] = system: UACC-62 melanoma
[10] = system: LXFL 529 NSCLC
[11] = system: SK-MEL-2 melanoma
[12] = system: OVCAR-3 ovarian
[13] = system: UACC-257 melanoma
[14] = system: SNB-78 CNS
[15] = system: HL-60(TB) leukemia
[16] = system: CCRF-CEM leukemia
[17] = system: SF-295 CNS
[18] = system: M19-MEL melanoma
[19] = system: SK-MEL-28 melanoma
[20] = system: SR leukemia
[21] = system: OVCAR-4 ovarian
[22] = system: XF 498 CNS
[23] = system: NCI-H23 lung
[24] = system: SN12C renal
[25] = system: RXF 393 renal
[26] = system: U251 CNS
[27] = system: OVCAR-8 ovarian
[28] = system: OVCAR-5 ovarian
[29] = system: KM12 colon
[30] = system: SF-539 CNS
[31] = system: SK-OV-3 ovarian
[32] = system: HOP-18 NSCLC
[33] = system: IGROV1 ovarian
[34] = system: DMS 273 small cell lung
[35] = system: SW-620 colon
[36] = system: LOX IMVI melanoma
[37] = system: ACHN renal
[38] = system: MOLT-4 leukemia
[39] = system: TK-10 renal
[40] = system: HOP-62 NSCLC
[41] = system: K-562 leukemia
[42] = system: HCC-2998 colon
[43] = system: SF-268 CNS
[44] = system: RXF-631 renal
[45] = system: DLD-1 colon
[46] = system: HCT-116 colon
[47] = system: KM20L2 colon
[48] = system: MALME-3M melanoma
[49] = system: 786-0 renal
[50] = system: EKVX NSCLC
[51] = system: NCI-H460 lung
[52] = system: CAKI-1 renal
[53] = system: A549 NSCLC
[54] = system: M14 melanoma
[55] = system: NCI-H522 lung
[56] = system: RPMI-8226 leukemia
[57] = system: HCT-15 colon
[58] = system: DMS 114 small cell lung
[59] = system: HOP-92 NSCLC

FC(F)(F)c1cccc2ns[s+]c12
TGI [1]: > 100 µM
TGI [2]: > 100 µM
TGI [3]: > 100 µM
TGI [4]: > 100 µM
TGI [5]: > 100 µM
TGI [6]: > 100 µM
TGI [7]: > 100 µM
TGI [8]: > 100 µM
TGI [9]: > 100 µM
TGI [10]: > 100 µM
TGI [11]: > 100 µM
TGI [12]: > 100 µM
TGI [13]: > 100 µM
TGI [14]: > 100 µM
TGI [15]: > 100 µM
TGI [16]: > 100 µM
TGI [17]: > 100 µM
TGI [18]: > 100 µM
TGI [19]: > 100 µM
TGI [20]: > 100 µM
TGI [21]: > 100 µM
TGI [22]: > 100 µM
TGI [23]: > 100 µM
TGI [24]: > 100 µM
TGI [25]: > 100 µM
TGI [26]: > 100 µM
TGI [27]: > 100 µM
TGI [28]: > 100 µM
TGI [29]: > 100 µM
TGI [30]: > 100 µM
TGI [31]: > 100 µM
TGI [32]: > 100 µM
TGI [33]: > 100 µM
TGI [34]: > 100 µM
TGI [35]: > 100 µM
TGI [36]: > 100 µM
TGI [37]: > 100 µM
TGI [38]: > 100 µM
TGI [39]: > 100 µM
TGI [40]: > 100 µM
TGI [41]: > 100 µM
TGI [42]: > 100 µM
TGI [43]: > 100 µM
TGI [44]: > 100 µM
TGI [45]: > 100 µM
TGI [46]: > 100 µM
TGI [47]: > 100 µM
TGI [48]: > 100 µM
TGI [49]: > 100 µM
TGI [50]: > 100 µM
TGI [51]: > 100 µM
TGI [52]: > 100 µM
TGI [53]: > 100 µM
TGI [54]: > 100 µM
TGI [55]: > 100 µM

CNC(=S)NC(=S)N(C)C
TGI [1]: > 100 µM
TGI [2]: > 100 µM
TGI [4]: > 100 µM
TGI [5]: > 100 µM
TGI [56]: > 100 µM
TGI [8]: > 100 µM
TGI [10]: > 100 µM
TGI [12]: > 100 µM
TGI [13]: > 100 µM
TGI [14]: > 100 µM
TGI [15]: 20 µM
TGI [57]: > 100 µM
TGI [17]: > 100 µM
TGI [19]: > 100 µM
TGI [20]: > 100 µM
TGI [21]: > 100 µM
TGI [22]: > 100 µM
TGI [24]: > 100 µM
TGI [25]: > 100 µM
TGI [26]: > 100 µM
TGI [27]: > 100 µM
TGI [58]: > 100 µM
TGI [30]: > 100 µM
TGI [31]: > 100 µM
TGI [32]: > 100 µM
TGI [33]: > 100 µM
TGI [35]: > 100 µM
TGI [36]: > 100 µM
TGI [37]: > 100 µM
TGI [38]: > 100 µM
TGI [39]: > 100 µM
TGI [40]: > 100 µM
TGI [41]: > 100 µM
TGI [42]: > 100 µM
TGI [59]: > 100 µM
TGI [43]: > 100 µM
TGI [44]: > 100 µM
TGI [45]: > 100 µM
TGI [46]: > 100 µM
TGI [47]: > 100 µM
TGI [49]: > 100 µM
TGI [50]: > 100 µM
TGI [51]: > 100 µM
TGI [52]: > 100 µM
TGI [53]: > 100 µM
TGI [54]: > 100 µM
TGI [55]: > 100 µM
